Values of other authors, collected in article PMC10608500 (Marine Drugs, 2023).
Like-named read-outs stand apart in the source and are kept apart here.

How the values were obtained:
[1] = Table 1
[2] = tested on: U937 human histiocytic lymphoma cells; set-up: method as in PMID 34986303; details: read-out: IC50 against U937 cells
[3] = tested on: CCRF-CEM human T lymphoblast cells; set-up: method as in PMID 34986303; details: read-out: IC50 against CCRF-CEM cells
[4] = from Oscillatoria sp., ref Li, T et al. 20
[5] = from Oscillatoria agardhii, ref Murakami, M et al. 21

| Substance | Activities [1, 4] | IC50 [2] [µM] | IC50 [3] [µM] | Activities [1, 5] | other results |
| --- | --- | --- | --- | --- | --- |
| heptavalinamide A | – | – | – | – | Activities ([1]; from Symploca sp., ref Suo, R et. al. 19): cytotoxic |
| amantamide B | CXCR7 agonist, cytotoxic | 7.3 | 5.6 | – | – |
| sepiatocin | – | – | – | – | Activities ([1]; from Sepia officinalis, ref Henry, J et al. 22): muscle contractile activity modulator (sepiatocin) |
| amantamide A | CXCR7 agonist, cytotoxic | 6.1 | 8.3 | – | – |
| prenylagaramide A | – | – | – | no biological activity | – |
| prenylagaramide B | – | – | – | no biological activity | – |
